How the values were obtained:
[1] = tested on: Plutella xylostella (Diamondback Moth); experiment: Example B9: Plutella xylostella, artificial diet, 96-well; assay type: in vivo; details: 216 h, application rate of 500 ppm, eggs/L1 larvae, 9 days after infestation
Method: Example B9: Plutella xylostella (Diamondback Moth)
96-well microtiter plates containing artificial diet were treated with aqueous test solutions, prepared from 10,000 ppm DMSO stock solutions, by a liquid handling robot. After drying, eggs (˜30 per well) were infested onto a netted lid which was suspended above the diet. The eggs hatch and L1 larvae move down to the diet. The samples were assessed for mortality 9 days after infestation.
The following compounds gave an effect of at least 80% mortality at an application rate of 500 ppm: […]

[2] = tested on: Spodoptera littoralis (Egyptian Cotton Leaf Worm); experiment: Example B7: Spodoptera littoralis, uptake by lettuce roots from agar; assay type: in vivo; details: 144 h, test rate of 12.5 ppm, absorbed by lettuce roots, eggs, 6 days after infestation, read-out: control in at least one of the three categories (mortality, anti-feeding, or growth inhibition)
From the text: Example B7: Spodoptera littoralis (Egyptian Cotton Leaf Worm)
Test compounds were applied by pipette from 10,000 ppm DMSO stock solutions into 24-well plates and mixed with agar. Lettuce seeds were placed onto the agar and the multi well plate was closed by another plate which contained also agar. After 7 days the compound was absorbed by the roots and the lettuce grew into the lid plate. The lettuce leaves were then cut off into the lid plate. Spodoptera eggs were pipetted through a plastic stencil onto a humid gel blotting paper and the lid plate was closed with it. The samples were assessed for mortality, anti-feedant effect and growth inhibition in comparison to untreated samples 6 days after infestation.
The following compounds gave an effect of at least 80% control in at least one of the three categories (mortality, anti-feeding, or growth inhibition) at a test rate of 12.5 ppm: […]

[3] = tested on: Plutella xylostella (Diamond Back Moth); experiment: Example B4: Plutella xylostella, artificial diet, 24-well; assay type: in vivo; details: 192 h, application rate of 200 ppm, eggs, 8 days after infestation, read-out: control in at least one of the two categories (mortality or growth inhibition)
Method: Example B4: Plutella xylostella (Diamond Back Moth)
24-well microtiter plates with artificial diet were treated with aqueous test solutions prepared from 10,000 ppm DMSO stock solutions by pipetting. After drying, Plutella eggs were pipetted through a plastic stencil onto a gel blotting paper and the plate was closed with it. The samples were assessed for mortality and growth inhibition in comparison to untreated samples 8 days after infestation.
(§1) The following compounds gave an effect of at least 80% control in at least one of the two categories (mortality or growth inhibition) at an application rate of 200 ppm: […]

[4] = tested on: Spodoptera littoralis (Egyptian Cotton Leaf Worm); experiment: Example B6: Spodoptera littoralis, spray on cotton leaf discs; assay type: in vivo; details: foliar, 72 h, application rate of 200 ppm, L1 larvae, 3 days after infestation, read-out: control in at least one of the three categories (mortality, anti-feedant effect, or growth inhibition)
Method: Example B6: Spodoptera littoralis (Egyptian Cotton Leaf Worm)
Cotton leaf discs were placed onto agar in 24-well microtiter plates and sprayed with aqueous test solutions prepared from 10,000 ppm DMSO stock solutions. After drying the leaf discs were infested with five L1 larvae. The samples were assessed for mortality, anti-feeding effect, and growth inhibition in comparison to untreated samples 3 days after infestation. Control of Spodoptera littoralis by a test sample is given when at least one of the categories mortality, anti-feedant effect, and growth inhibition is higher than the untreated sample.

[5] = tested on: Chilo suppressalis (Striped Rice Stemborer); experiment: Example B3: Chilo suppressalis, artificial diet; assay type: in vivo; details: 144 h, application rate of 200 ppm, L2 larvae, 6 days after infestation, read-out: control in at least one of the three categories (mortality, anti-feedant effect, or growth inhibition)
Method: Example B3: Chilo suppressalis (Striped Rice Stemborer)
24-well microtiter plates with artificial diet were treated with aqueous test solutions prepared from 10,000 ppm DMSO stock solutions by pipetting. After drying, the plates were infested with L2 larvae (6-8 per well). The samples were assessed for mortality, anti-feeding effect, and growth inhibition in comparison to untreated samples 6 days after infestation. Control of Chilo suppressalis by a test sample is given when at least one of the categories mortality, anti-feedant effect, and growth inhibition is higher than the untreated sample.

[6] = tested on: Diabrotica balteata (Corn Root Worm); experiment: Example B1: Diabrotica balteata, spray on maize sprouts; assay type: in vivo; details: 96 h, application rate of 200 ppm, L2 larvae, 4 days after infestation, read-out: control in at least one of the two categories (mortality or growth inhibition)
Method: Example B1: Diabrotica balteata (Corn Root Worm)
Maize sprouts placed onto an agar layer in 24-well microtiter plates were treated with aqueous test solutions prepared from 10,000 ppm DMSO stock solutions by spraying. After drying, the plates were infested with L2 larvae (6 to 10 per well). The samples were assessed for mortality and growth inhibition in comparison to untreated samples 4 days after infestation.
as §1

[7] = tested on: Euschistus heros (Neotropical Brown Stink Bug); experiment: Example B2: Euschistus heros, spray on soybean leaves; assay type: in vivo; details: 120 h, application rate of 200 ppm, N2 nymphs, 5 days after infestation, read-out: control in at least one of the two categories (mortality or growth inhibition)
Method: Example B2: Euschistus heros (Neotropical Brown Stink Bug)
Soybean leaves on agar in 24-well microtiter plates were sprayed with aqueous test solutions prepared from 10,000 ppm DMSO stock solutions. After drying the leaves were infested with N2 nymphs. The samples were assessed for mortality and growth inhibition in comparison to untreated samples 5 days after infestation.
as §1

[8] = tested on: Myzus persicae (Green Peach Aphid); experiment: Example B10: Myzus persicae, sucrose solution, 96-well; assay type: in vivo; details: 120 h, application rate of 50 ppm, 5 days after infestation
From the text: Example B10: Myzus persicae (Green Peach Aphid)
Test compounds prepared from 10,000 ppm DMSO stock solutions were applied by a liquid handling robot into 96-well microtiter plates and mixed with a sucrose solution. Parafilm was stretched over the 96-well microtiter plate and a plastic stencil with 96 holes was placed onto the plate. Aphids were sieved into the wells directly onto the Parafilm. The infested plates were closed with a gel blotting card and a second plastic stencil and then turned upside down. The samples were assessed for mortality 5 days after infestation.

[9] = tested on: Myzus persicae (Green Peach Aphid); experiment: Example B5: Myzus persicae, intrinsic activity; assay type: in vivo; details: 120 h, test rate of 12 ppm, 5 days after infestation
From the text: Example B5: Myzus persicae (Green Peach Aphid). Intrinsic Activity
Test compounds prepared from 10,000 ppm DMSO stock solutions were applied by pipette into 24-well microtiter plates and mixed with sucrose solution. The plates were closed with a stretched Parafilm. A plastic stencil with 24 holes was placed onto the plate and infested pea seedlings were placed directly on the Parafilm. The infested plate was closed with a gel blotting paper and another plastic stencil and then turned upside down. The samples were assessed for mortality 5 days after infestation.

SMILES	mortality at 500 ppm [1] [%]	percent control (mortality, anti-feeding or growth inhibition) at 12.5 ppm [2] [%]	percent control (mortality or growth inhibition) at 200 ppm [3] [%]	percent control (mortality, anti-feedant effect or growth inhibition) at 200 ppm [4] [%]	percent control (mortality, anti-feedant effect or growth inhibition) at 200 ppm [5] [%]	percent control (mortality or growth inhibition) at 200 ppm [6] [%]	percent control (mortality or growth inhibition) at 200 ppm [7] [%]	mortality at 50 ppm [8] [%]	melting point [°C]	mortality at 12 ppm [9] [%]
CC(NC(=O)c1cc(Br)cc(C(F)(F)F)c1)c1nccnc1-n1nccn1 (centres unmarked) [Compound P2, 3-bromo-N-[1-[3-(triazol-2-yl)pyrazin-2-yl]ethyl]-5-(trifluoromethyl)benzamide]	≥ 80	≥ 80	≥ 80	≥ 80	≥ 80	≥ 80	≥ 80	≥ 80	–	–
CCCc1cc(C(=O)NC(C)c2nccnc2-n2nccn2)cc(Cl)n1 (centres unmarked) [Compound P34, 2-chloro-6-propyl-N-[1-[3-(triazol-2-yl)pyrazin-2-yl]ethyl]pyridine-4-carboxamide]	–	–	–	–	–	–	–	–	142 to 145	–
Cc1cnc(C(C)NC(=O)c2cc(C(F)(F)F)cc(C(F)(F)F)c2)c(-n2ccnn2)n1 (centres unmarked) [Compound P43, N-[1-[5-methyl-3-(triazol-1-yl)pyrazin-2-yl]ethyl]-3,5-bis(trifluoromethyl)benzamide]	–	–	–	–	–	–	–	–	167 to 171	–
COc1cc(C)cc(C(=O)NC(C)c2nccnc2-n2nccn2)c1 (centres unmarked) [Compound P27, 3-methoxy-5-methyl-N-[1-[3-(triazol-2-yl)pyrazin-2-yl]ethyl]benzamide]	–	–	–	–	–	–	–	–	128 to 129	–
CC(NC(=O)c1cc(OC(F)F)cc(C(F)(F)F)c1)c1nccnc1-n1nccn1 (centres unmarked) [Compound P10, 3-(difluoromethoxy)-N-[1-[3-(triazol-2-yl)pyrazin-2-yl]ethyl]-5-(trifluoromethyl)benzamide]	≥ 80	≥ 80	≥ 80	≥ 80	≥ 80	≥ 80	–	≥ 80	–	–
CC(NC(=O)c1cc(OC(F)(F)F)cc(C(F)(F)F)c1)c1nccnc1-n1nccn1 (centres unmarked) [Compound P5, N-[1-[3-(triazol-2-yl)pyrazin-2-yl]ethyl]-3-(trifluoromethoxy)-5-(tifluoromethyl)benzamide]	≥ 80	≥ 80	≥ 80	≥ 80	≥ 80	≥ 80	–	–	–	–
CC(NC(=O)c1cc(Cl)cc(C(F)(F)F)c1)c1nccnc1-n1nccn1 (centres unmarked) [Compound P4, 3-chloro-N-[1-[3-(triazol-2-yl)pyrazin-2-yl]ethyl]-5-(trifluoromethyl)benzamide]	≥ 80	≥ 80	≥ 80	≥ 80	≥ 80	≥ 80	≥ 80	≥ 80	–	–
CC(NC(=O)c1cc(C(F)(F)F)cc(C2(C#N)CC2)c1)c1nccnc1-n1nccn1 (centres unmarked) [Compound P16, 3-(1-cyanocyclopropyl)-N-[1-[3-(triazol-2-yl)pyrazin-2-yl]ethyl]-5-(trifluoromethyl)benzamide]	≥ 80	–	≥ 80	≥ 80	≥ 80	≥ 80	≥ 80	≥ 80	–	≥ 80
CC(NC(=O)c1cc(C(F)(F)F)cc(S(=O)(=O)C2CC2)c1)c1nccnc1-n1nccn1 (centres unmarked) [Compound P40, 3-cyclopropylsulfonyl-N-[1-[3-(triazol-2-yl)pyrazin-2-yl]ethyl]-5-(trifluoromethyl)benzamide]	≥ 80	–	≥ 80	≥ 80	≥ 80	–	–	≥ 80	–	≥ 80
Cc1cc(F)cc(C(=O)NC(C)c2nccnc2-n2nccn2)c1 (centres unmarked) [Compound P37, 3-fluoro-5-methyl-N-[1-[3-(triazol-2-yl)pyrazin-2-yl]ethyl]benzamide]	–	–	–	–	–	–	–	–	154 to 155	–
CCOc1cc(C(=O)NC(C)c2nccnc2-n2nccn2)cc(Cl)n1 (centres unmarked) [Compound P21, 2-chloro-6-ethoxy-N-[1-[3-(triazol-2-yl)pyrazin-2-yl]ethyl]pyridine-4-carboxamide]	–	–	–	–	–	–	–	–	129 to 130	–
CC(NC(=O)c1cc(Cl)nc(Cl)c1)c1nccnc1-n1nccn1 (centres unmarked) [Compound P29, 2,6-dichloro-N-[1-[3-(triazol-2-yl)pyrazin-2-yl]ethyl]pyridine-4-carboxamide]	≥ 80	≥ 80	≥ 80	≥ 80	≥ 80	≥ 80	–	≥ 80	–	–
CCc1cc(C(=O)NC(C)c2nccnc2-n2nccn2)cc(Cl)n1 (centres unmarked) [Compound P31, 2-chloro-6-ethyl-N-[1-[3-(triazol-2-yl)pyrazin-2-yl]ethyl]pyridine-4-carboxamide]	–	–	–	–	–	–	–	–	126 to 129	–
CC(NC(=O)c1cc(C(F)(F)F)cc(C(F)(F)F)c1)c1nccnc1-n1nccn1 (centres unmarked) [Compound P49, N-[1-[3-(triazol-2-yl)pyrazin-2-yl]ethyl]-3,5-bis(trifluoromethyl)benzamide]	–	≥ 80	≥ 80	≥ 80	≥ 80	≥ 80	≥ 80	–	–	–
